Experimental data taken from publication PMC12603070, “A high-throughput screening approach to discover potential colorectal cancer chemotherapeutics: repurposing drugs to identify novel disruptors of 14-3-3 proteins” (Cell Death & Disease, 2025).

Legend:
14-3-3ζ = biological target: T1, 14-3-3ζ (Homo sapiens, UniProt P63104); assay: Isothermal titration calorimetry (ITC) with purified 14-3-3ζ; assay type: binding; details: 750-1,000 μM ligand, 70 μM protein, 1-4% DMSO
T1 construct: made in house; host or cells: Escherichia coli BL21 LOBSTR-RIL
T1 sequence (P63104 1-245): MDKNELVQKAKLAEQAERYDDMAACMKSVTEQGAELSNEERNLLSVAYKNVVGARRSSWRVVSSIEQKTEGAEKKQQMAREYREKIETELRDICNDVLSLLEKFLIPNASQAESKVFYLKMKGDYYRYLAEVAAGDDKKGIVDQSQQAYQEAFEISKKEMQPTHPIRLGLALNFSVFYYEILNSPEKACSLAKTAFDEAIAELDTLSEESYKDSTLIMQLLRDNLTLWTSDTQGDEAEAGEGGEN
Description: application to isothermal titration calorimetry (ITC) studies.
ITC experiments were performed, but the solubility incompatibility gave unclear data, with a […]
All ITC experiments were conducted at 750-1,000 μM of the ligand (in the syringe: titrant), with 70 μM of protein in the cell: titrand); each injection introduced approximately 4 nmol of ligand. All experiments were conducted at 1 -4% DMSO based on drug’s solubility. […]

His-14-3-3ζ = biological target: T2, His-14-3-3ζ (Homo sapiens, UniProt P63104); assay: Surface plasmon resonance (SPR) on immobilized His-14-3-3ζ; assay type: binding
T2 construct: made in house; host or cells: Escherichia coli BL21 LOBSTR-RIL
T2 sequence (P63104 1-245): T1 sequence (P63104 1-245)
Description: The published protocol of Higuchi & Ottmann as followed with modifications to express 14-3-3ζ [44]. Escherichia coli BL21 LOBSTR-RIL cells were transformed with a plasmid encoding His-14-3-3ζ. The transformed cells were grown in TB medium containing appropriate antibiotic at 37 °C with shaking at 200 rpm until the culture reached an optical density of 0.6–0.8 at 600 nm (OD600). Protein expression was induced by the addition of isopropyl β-D-1-thiogalactopyranoside to a final concentration of 0.4 mM. Subsequently, the temperature was decreased to 16 °C and the culture incubated for another 16 h. Cells were harvested by centrifugation at 7000 × g for 20 min at 21 °C. The supernatant was discarded, and the cell pellet containing 14-3-3ζ was mixed and resuspended in lysis buffer (50 mM Tris, pH 7.80), 500 mM NaCl, 5 mM imidazole, 5% glycerol, 1 mM PMSF & 1 mM Benzamidine. Cells were lysed by sonication on ice using a probe sonicator (20 cycles of 10 s on, 20 s off, amplitude 70%). The lysate was centrifuged at 30,000 × g for 30 min at 4 °C to remove cell debris. The supernatant was collected for further purification. The 14-3-3ζ was isolated from the lysate by affinity chromatography (Ni-NTA beads, Qiagen). For further purification, the eluant was subjected to size exclusion chromatography using a Superdex 75 gel filtration column (HiLoad 16/600, GE Healthcare), pre-equilibrated with SEC buffer (20 mM Tris, pH 7.5, 150 mM NaCl, 1 mM TCEP). The protein solution was concentrated by ultrafiltration, flash frozen, and stored at −80 °C.
The general protocol for evaluating 14-3-3ζ was adapted from Hartman et al. and modified for our instrument and sensors. The SPR experiments were performed using a Open surface plasmon resonance instrument (OpenSPR^TM, Nicoya, Kitchener-Waterloo, Canada), and high sensitivity-nitrilotriacetic acid (HS-NTA) sensors. The sensor chip surface was first activated with 40 mM of NiCl2 at a flow rate of 20 μL/min using 20 mM HEPES pH 7.8, 150 mM NaCl and 1% DMSO as the running buffer. All running buffers were filtered and degassed prior to use. 100 μg/mL His-14-3-3ζ protein in 20 mM HEPES pH 7.8, 150 mM NaCl and 1% DMSO was injected at 8 μL/min flow rate for 800 s contact time and immobilized until the instrument registered 2900–3500 RU (activation and protein immobalization spectrograms are provided as Supplementary Fig. 10). Drugs were dissolved in DMSO and were diluted with 20 mM HEPES pH 7.8, 150 mM NaCl (final DMSO concentration of 1% v/v) and were injected at a flow rate of 50 μL/min. Single-cycle kinetics were applied for KD evaluation and binding affinity using TraceDrawer v.1.8.1 (Ridgeview Instruments AB).

## CCCCCCOC(=O)c1ccc(Nc2c([N+](=O)[O-])cc(C(=O)O)cc2[N+](=O)[O-])cc1 [BV01, 4-((4-((hexyloxy)carbonyl)phenyl)amino)-3,5-dinitrobenzoic acid]
14-3-3ζ
  Binding by ITC: weak sign of binding
His-14-3-3ζ; SPR curve at 0.005 mM ligand
  Bmax ([Signal (RU)]): 100.98 RU
His-14-3-3ζ; SPR curve at 0.007 mM ligand
  Bmax ([Signal (RU)]): 147.7 RU
His-14-3-3ζ; SPR curve at 0.03 mM ligand
  Bmax ([Signal (RU)]): 198.6 RU
His-14-3-3ζ; SPR curve at 0.05 mM ligand
  Bmax ([Signal (RU)]): 257.38 RU
His-14-3-3ζ; SPR curve at 0.07 mM ligand
  Bmax ([Signal (RU)]): 320.07 RU
His-14-3-3ζ; SPR dissociation rate, value repeated per curve
  kd: 0.0112 s⁻¹
His-14-3-3ζ; SPR fit parameter, per curve
  BI ([Signal (RU)]): 0.1 RU
His-14-3-3ζ; SPR, immobilized His-14-3-3ζ, single-cycle kinetics, 1% DMSO
  Kd: 6.32 µM
His-14-3-3ζ; pH 7.8, read-out: ka
  kon: 1770 M⁻¹ s⁻¹
